Assay results published in patent publication US10780069B2, “Use of GC-1 in transplant related population” (University of Pittsburgh—Of the Commonwealth System of …, priority 2017, dated 2020).

Test system: hMet-S45Y-β-catenin HCC model
Assay: GC-1 diet in hMet-S45Y-β-catenin HCC model
Type: in vivo, mice
Conditions: for increase in gene expression of deiodinase (RT-PCR, liver): p<0.001
Description: SBTT plasmids and HTVI have been described previously (Tao et al., Hepatology 2016, 64:1587-605). Briefly, […] pT3-EF5α-hMet-V5 and pT3-EF5α-S45Y-β-catenin-Myc combination along with the transposase in a ratio of 25:1 were diluted in 2 ml of normal saline (0.9% NaCl), filtered through 0.22 μm filter (Millipore), and injected into the lateral tail vein of 23 FVB mice that were around 6-week-old, in 5-7 seconds. These mice are referred henceforth as hMet-mutant-β-catenin mice. Four weeks after injection, hMet-mutant-β-catenin mice were randomized into two groups. One group was kept on basal diet (n=12) and another group was switched to GC-1-supplemented diet (5 mg/kg of diet, Medchem Express) (n=11). Animals on control diet were sacrificed at either 21 days (n=8) or 10 days (n=4) after initiation of diet. Similarly, animals on GC-1-diet were sacrificed at either 21 days (n=7) or 10 days (n=4) after initiation of the diet. The animals were given access to food and water ad libitum with a 12-hour light/dark daily cycle. One intraperitoneal injection of BrdU was performed on day 9 during 10 days of GC-1 or basal diet treatment and livers were harvested 24 hours later. Guidelines for the Care and Use of Laboratory Animals were followed.
Four micron formalin-fixed sections were deparaffinized in graded xylene and alcohol and rinsed in PBS. To block endogenous peroxidase activity, the sections were incubated in 3% hydrogen peroxide (Sigma). For antigen retrieval, slides were microwaved in citrate buffer followed by blocking with Superblock (ScyTek Laboratories, Logan, Utah) for 10 minutes. Sections were incubated overnight at 4° C. or 1 hour room temperature in the following antibodies: cyclin-D1 (Thermo-Scientific, Fremont, Calif.), Glutamine synthetase, Ki-67, Myc-tag and CD45 (Santa Cruz Biotechnology, Dallas, Tex.). Sections were then incubated with species-specific secondary horseradish peroxidase-conjugated antibody for 30 minutes at room temperature. Sections stained with antibodies were incubated with streptavidin-biotin and signal was detected with DAB. Cell death was evaluated in liver sections by terminal deoxynucleotidyl transferase dUTP nick end labeling (TUNEL) using manufacturer's instructions available with the kit (EMD-Millipore). BrdU was stained with mouse antibody (Becton Dickinson, Franklin Lakes, N.J.) as previously described (Alvarado et al., Gene Expr 2016, 17:19-34). Briefly, tissue sections were deparaffinized, exposed to 0.3% hydrogen peroxide in deionized water for 10 minutes to block endogenous peroxidase, treated with 2N HCl, incubated with trypsin 0.1% for 20 minutes and then with normal goat serum for 20 minutes at room temperature. Sections were then incubated overnight in cold room with anti-BrdU monoclonal antibody, followed by biotinylated goat anti-mouse IgG. DAB kit was then applied, and sections were counterstained with hematoxylin.
For quantification of Ki-67 immunohistochemistry (IHC), pictures were taken at 200× magnification from either tumor or non-tumor areas in the same slide. Each picture was separated into DAB staining channel and hematoxylin staining channel by Color Deconvolution using Imagej Fiji. To quantify the number of Ki-67 positive nuclei on each picture, the DAB staining on the DAB channel was highlighted with the threshold of 48 and then quantified with Analyze Particles. All particles of areas smaller than 100 pixels were excluded. To quantify the total number of nuclei on each picture the hematoxylin staining on the hematoxylin channel was highlighted with the threshold of 205 and then quantified with Analyze Particles with similar exclusion of small areas. The percentage of Ki-67-positive nuclei on each picture was calculated by dividing the number of particles counted from DAB channel by the number of particles counted from the hematoxylin channel. […]

Glutamine synthetase (GS) IHC of tumors (21 days, both groups): uniformly and comparably positive
Structure (SMILES): Cc1cc(OCC(=O)O)cc(C)c1Cc1ccc(O)c(C(C)C)c1 [GC-1, Sobetirome]
increase in gene expression of deiodinase (RT-PCR, liver) (10-days of GC-1-diet vs basal diet): around 10 fold | increase in gene expression of deiodinase (RT-PCR, liver) (21-days of GC-1-diet vs basal diet): around 40 fold | cyclin-D1 and GS IHC of tumors (10 days GC-1 diet): continued to be positive | tumor foci by H&E and Myc-tag staining (10 days GC-1 diet): Smaller and fewer tumor foci | gross liver appearance (10 days GC-1 diet vs basal diet): indistinguishable | liver weight to body weight ratio (LW/BW) (10 days GC-1 diet vs basal diet, p=0.0022): significant decrease | BrdU and Ki-67 IHC within tumor foci (10 days GC-1 vs basal diet): notable decrease | GS levels, WB (10 days GC-1 vs basal diet): modest decreases | Ki-67-positive cell numbers in non-tumor areas (10 days GC-1 vs basal diet): No differences | TUNEL-positive cells (10 days GC-1 vs basal diet): Comparable numbers | cyclin-D1 levels, WB (10 days GC-1 vs basal diet): marginal decreases | number of CD45-positive cells (inflammation) (10 days GC-1 vs basal diet): No differences | total and active β-catenin levels, WB (10 days GC-1 vs basal diet): modest decrease in the levels of total but not active β-catenin | percentage of Ki-67-positive cells within tumor nodules (10 days GC-1 vs basal diet, p<0.01): significant decrease | p-AKT levels, WB (10 days GC-1 vs control): did not have any effect | p-ERK1 and p-ERK2, WB (10 days GC-1 vs control): dramatically decreased | p-Met (Tyr 1234/1235), WB, two independent antibodies (10 days GC-1 vs control): profound decrease | p-STAT3, WB (10 days GC-1 vs control): profound decrease | total AKT levels, WB (10 days GC-1 vs control): no change | total ERK levels, WB (10 days GC-1 vs control): unaffected | total Met levels, WB (10 days GC-1 vs control): modestly decreased | total STAT3 levels, WB (10 days GC-1 vs control): overall reduced | Myc-tag levels by Western blot (21 days GC-1 diet): modest decrease | cyclin-D1 IHC of tumor nodules (21 days GC-1 diet): strongly positive | gross liver appearance (21 days GC-1 diet): relatively smooth surface and smaller nodules | tumor nodules by H&E and Myc-tag IHC (21 days GC-1 diet): notably smaller tumor nodules | liver weight to body weight ratio (LW/BW) (21 days GC-1 diet vs basal diet, p=0.0506): almost significant decrease | GS levels, WB (21 days GC-1 vs basal diet): modest decrease | Ki-67-positive cells in non-tumor areas (21 days GC-1 vs basal diet): insignificant | cyclin-D1 levels, WB (21 days GC-1 vs basal diet): no change | p-AKT levels, WB (21 days GC-1 vs basal diet): comparable levels | p-Met (Tyr 1234/1235), WB (21 days GC-1 vs basal diet): dramatic decrease | p-STAT3 levels, WB (21 days GC-1 vs basal diet): striking decrease | percentage of Ki-67 positive tumor cells within nodules (21 days GC-1 vs basal diet): insignificant differences | total AKT levels, WB (21 days GC-1 vs basal diet): marginally increased | total Met levels, WB (21 days GC-1 vs basal diet): only marginally and variably decreased | total STAT3 levels, WB (21 days GC-1 vs basal diet): relatively unaltered | total and active β-catenin levels, WB (21 days GC-1 vs basal diet): remained unaltered | total and p-ERK1 and total and p-ERK2, WB (21 days GC-1 vs basal diet): notably decreased | TUNEL-positive cells (cell death) (21 days, basal diet vs GC-1): More TUNEL-positive cells were evident in the basal diet group
